Data on six compounds can be found in patent US8084621B2, “3-Pyrrolo[b]cyclohexylene-2-dihydroindolinone derivatives and uses thereof” (Jiangsu Simcere Pharmaceutical R&D Co. Ltd., priority 2006, dated 2011).

In general, inhibition refers to how much of the control response was suppressed. The term IC50 denotes the concentration needed to halve the response being measured. Low values mean inhibition by little substance, high ones a need for much substance.

Common to all, as to format: cell-based
Assay [1] deals with Human Pancreatic Carcinoma Cell Line (BXPC-3). Put plainly: Tumor cell proliferation assay (MTT), BXPC-3. Conditions: for inhibition at 10 µM: concentration of 10^−5 mol/L, preliminary screening, 72 hours, read-out: Inhibition rate % BXPC-3; for IC50: secondary screening, 48 hours. The source says: (§1) The assay used generally is the blue tetrazolium bromide (MTT) method. […] The amount of formazan can be detected by the microplate reader through the absorption value at 570 nm. The amount of formazan product generated is proportional to the number of living cells in the sample, so the OD value may reflect the number of living cells and the ability of a test drug to inhibit or kill cells. The MTT assay may be used in determining the ability of different compounds of the present invention to inhibit one or more cancer cells proliferation. Similar assays can be designed along the same lines for any cancer cell using techniques well known in the art.
(§2) The assay used generally is the blue tetrazolium bromide (MTT) method. […] Intracellular purple formazan salt crystals can be solved in DMSO and the absorption value at 570 nm is detected by the microplate reader, then the number of living cells can be detected indirectly. So MTT assay may be used to determine the ability of a compound of the present invention to inhibit cell proliferation. Similar assays can be designed along the same lines for any cancer cell using techniques well known in the art.
2.2.6 Human Pancreatic Carcinoma Cell Line (BXPC-3);
The cells of 2.2.6, 2.2.7 cultured in RPMI 1640 medium containing 12% fetal bovine serum in the condition of 37° C., 5% CO2.
(§3) 2.3.1 Cell seeding: Trypsinize the cell by 0.05% trypsin-EDTA and add RPMI 1640 medium (DMEM or 5A) containing 12% calf serum. Count the number, then dilute to 1.67×10^4/ml. Add 180 ul/well to the 96 well plate (3000 cells/well).
(§4) 2.3.2 Culture: cells are incubated for 24 hours at 37° C. under 5% CO2.
(§5) 2.3.3 Preliminary screening: The compounds are firstly diluted to 0.1 mol/L with DMSO, and then diluted to three concentrations of 10^−5 mol/L, 10^−6 mol/L and 10^−7 mol/L. Add 20 ul test compounds to the 96 well plate and incubate for 72 hours. Each group has three parallel wells and all experiments repeat three times. Each inhibition ratio is calculated, then an average value of three times is taken as the measured value. 2.3.4 Staining 2.3.4.1 Attached cell: add 20 ul/well MTT to the 96-well plates; incubate for 4 hours in the incubator. Pour out the culture medium in the well and add 100 ul/well DMSO. Shake the plate for 5 min. 2.3.4.2 Suspension cell: add 20 ul/well MTT to the 96-well plates; incubate for 4 hours in the incubator. Add 50 ul/well 20% SDS and incubate for overnight in the incubator. 2.3.5 Reading the plates: read the absorbance A570-A630 with the Infinite M200 microtiter plate reader. Calculate the inhibition ratio of the test compounds. […] Dilute these compounds to ten concentrations: 10^−5 mol/L, 0.5×10^−5 mol/L, 10^−6 mol/L, 0.8×10^−6 mol/L, 0.6×10^−6 mol/L, 0.4×10^−6 mol/L, 0.2×10^−6 mol/L, 10^−7 mol/L, 0.8×10^−7 mol/L and 0.4×10^−7 mol/L. Add 20 ul test compound solution to the 96 well plate and incubate for 48 hours. Each group has three parallel wells and all experiments repeat for three times. Read the plates and calculate the inhibition ratio according to the preliminary screening method. 2.3.7 Calculate the Inhibition Ratio of Cell Proliferation and the IC50
(§6) According to the inhibition ratio of cell proliferation at the different concentrations of the compound, inhibition ratio of 50% of the test compound is calculated through the logarithm of the concentration of the compound with the Logit [I] linear regression, and an average value of three times is taken as the measured value of a sample.

The subject of assay [2] is Human Gastric Cancer Cell Line (BGC). The assay can be described thus: Tumor cell proliferation assay (MTT), BGC. Conditions: for inhibition at 10 µM: concentration of 10^−5 mol/L, preliminary screening, 72 hours, read-out: Inhibition rate % BGC; for IC50: secondary screening, 48 hours.
Description: as §1, §2
2.2.1 Human Gastric Cancer Cell Line (BGC)
(§7) The cells of the 2.2.1, 2.2.2, 2.2.3, 2.2.4, 2.2.5 cultured with RPMI 1640 containing 12% calf serum in the condition of 37° C., 5% CO2.
as §3, §4
(§8) 2.3.3 Preliminary screening: The compounds are firstly diluted to 0.1 mol/L with DMSO, and then diluted to three concentrations of 10^−5 mol/L, 10^−6 mol/L and 10^−7 mol/L. Add 20 ul test compounds to the 96 well plate and incubate for 72 hours. Each group has three parallel wells and all experiments repeat three times. Each inhibition ratio is calculated, then an average value of three times is taken as the measured value. 2.3.4 Staining 2.3.4.1 Attached cell: add 20 ul/well MTT to the 96-well plates; incubate for 4 hours in the incubator. Pour out the culture medium in the well and add 100 ul/well DMSO. Shake the plate for 5 min. 2.3.4.2 Suspension cell: add 20 ul/well MTT to the 96-well plates; incubate for 4 hours in the incubator. Add 50 ul/well 20% SDS and incubate for overnight in the incubator. 2.3.5 Reading the plates: read the absorbance A570-A630 with the Infinite M200 microtiter plate reader. Calculate the inhibition ratio of the test compounds. 2.3.6 Secondary screening: the compounds whose inhibition ratio is greater than 50% at the concentrations of 10^−5 mol/L in the preliminary screening will be picked out for Secondary screening. Dilute these compounds to ten concentrations: 10^−5 mol/L, 0.5×10^−5 mol/L, 10^−6 mol/L, 0.8×10^−6 mol/L, 0.6×10^−6 mol/L, 0.4×10^−6 mol/L, 0.2×10^−6 mol/L, 10^−7 mol/L, 0.8×10^−7 mol/L and 0.4×10^−7 mol/L. Add 20 ul test compound solution to the 96 well plate and incubate for 48 hours. Each group has three parallel wells and all experiments repeat for three times. Read the plates and calculate the inhibition ratio according to the preliminary screening method. 2.3.7 Calculate the Inhibition Ratio of Cell Proliferation and the IC50
as §6

Assay [3] concerns Human Colon Cancer Cell Line (HT-29). The assay can be described thus: Tumor cell proliferation assay (MTT), HT29. Conditions: for inhibition at 10 µM: concentration of 10^−5 mol/L, preliminary screening, 72 hours, read-out: Inhibition rate % HT29; for IC50: secondary screening, 48 hours.
Description: as §1, §2
2.2.11 Human Colon Cancer Cell Line (HT-29);
(§9) The cells of 2.2.11, 2.2.12, 2.2.13 were cultured in MC COYS 5-A medium containing 12% fetal bovine serum in the condition of 37° C., 5% CO2.
as §3, §4, §5, §6

Assay [4] deals with Human Pancreatic Carcinoma Cells (PANC-1). The assay can be described thus: Tumor cell proliferation assay (MTT), PANC-1. Conditions: for inhibition at 10 µM: concentration of 10^−5 mol/L, preliminary screening, 72 hours, read-out: Inhibition rate % PANC-1; for IC50: secondary screening, 48 hours.
Description: as §1, §2
2.2.4 Human Pancreatic Carcinoma Cells (PANC-1)
as §7, §3, §4, §8, §6

Assay [5] relates to Human Ovarian Cancer Cell Line (SK-OV-3). Put plainly: Tumor cell proliferation assay (MTT), SK-OV-3. The conditions noted are these: for inhibition at 10 µM: concentration of 10^−5 mol/L, preliminary screening, 72 hours, read-out: Inhibition rate % SK-OV-3; for IC50: secondary screening, 48 hours.
Description: as §1, §2
2.2.13 Human Ovarian Cancer Cell Line (SK-OV-3).
as §9, §3, §4, §8, §6

Assay [6] has as its system Human Small Cell Lung Cancer Cell Line (NCI-H446). Put plainly: Tumor cell proliferation assay (MTT), NCI-H446. The conditions noted are these: for inhibition at 10 µM: concentration of 10^−5 mol/L, preliminary screening, 72 hours, read-out: Inhibition rate % NCI-H446; for IC50: secondary screening, 48 hours.
Description: as §1, §2
2.2.5 Human Small Cell Lung Cancer Cell Line (NCI-H446)
as §7, §3, §4, §8, §6

The test system of assay [7] is Human Non-Small Cell Lung Cancer Cell Line (A549). Put plainly: Tumor cell proliferation assay (MTT), A549. The conditions noted are these: for inhibition at 10 µM: concentration of 10^−5 mol/L, preliminary screening, 72 hours, read-out: Inhibition rate % A549; for IC50: secondary screening, 48 hours.
Description: as §1, §2
2.2.2 Human Non-Small Cell Lung Cancer Cell Line (A549)
as §7, §3, §4, §8, §6

For the compound `Cc1[nH]c2c(c1C(=O)NCC(O)CN1CCOCC1)CCC/C2=C1/C(=O)Nc2ccccc21` (stereo not drawn) [I-67, N-(2-hydroxy-3-morpholinopropyl)-2-methyl-7-[1,2-dihydro-2-oxo-3H-indol-(Z)-3-ylidene]-4,5,6,7-tetrahydro-1H-indole-3-carboxamide], the inhibition at 10 µM in assay [1] came to 51.7%; in assay [2], 67.6%; in assay [3], 51.9%; in assay [4] it was 31.5%; in assay [5], 8.34%; in assay [6] it was 49.3%. Moreover, the half-inhibitory concentration (IC50) in assay [1] came to 7680 nM; in assay [2], 4.26 µM; in assay [3], 6.9 µM; in assay [6], 9.42 µM.

For the compound `Cc1[nH]c2c(c1C(=O)NCC(O)CN1CCOCC1)CCC/C2=C1/C(=O)Nc2ccc(Cl)cc21` (stereo not drawn) [I-69, N-(2-hydroxy-3-morpholinopropyl)-2-methyl-7-[1,2-dihydro-5-chloro-2-oxo-3H-indol-(Z)-3-ylidene]-4,5,6,7-tetrahydro-1H-indole-3-carboxamide], the inhibition at 10 µM came out at 18.9% in assay [7]; 39.9% in assay [1]; 30% in assay [2]; 34.9% in assay [3]; 22.4% in assay [4]; 2.8% in assay [5]. Besides, the inhibition at 10 µM in assay [6] came out at 25.3%.

As for `Cc1[nH]c2c(c1C(=O)NCC(O)CN1CCCC1)CCC/C2=C1/C(=O)Nc2ccc(Cl)cc21` (stereo not drawn) [I-72, N-(2-hydroxy-3-(pyrrolidin-1-yl)propyl)-2-methyl-7-[1,2-dihydro-5-chloro-2-oxo-3H-indol-(Z)-3-ylidene]-4,5,6,7-tetrahydro-1H-indole-3-carboxamide], the inhibition at 10 µM in assay [7] is 81.2%; in assay [1], 99.3%; in assay [2], 85.9%; in assay [3], 97.4%; in assay [4] it was 98.1%; in assay [5], 95.1%. Further, the inhibition at 10 µM in assay [6] was found to be 97.9%. Also, the IC50 stood at 3730 nM in assay [7]; 1890 nM in assay [1]; 2.92 µM in assay [2]; 4.36 µM in assay [3]; 1.81 µM in assay [4]; 2170 nM in assay [5]. The same compound came in with a half-inhibitory concentration (IC50) in assay [6] of 2.98 µM.

`Cc1[nH]c2c(c1C(=O)NCC(O)CN1CCN(C)CC1)CCC/C2=C1/C(=O)Nc2ccccc21` (stereo not drawn) [I-76, N-[2-hydroxy-3-(4-methylpiperazin-1-yl)propyl]-2-methyl-7-[1,2-dihydro-2-oxo-3H-indol-(Z)-3-ylidene]-4,5,6,7-tetrahydro-1H-indole-3-carboxamide]: the inhibition at 10 µM in assay [7] turned out to be 64.5%; in assay [1] it was 97.5%; in assay [2], 74.2%; in assay [3] it was 92.1%; in assay [4], 80.1%; in assay [5], 90.3%. In addition, in assay [6], the inhibition at 10 µM came to 64.6%. Besides, the IC50 in assay [7] came out at 1360 nM; in assay [1], 2240 nM; in assay [2] it was 3.63 µM; in assay [3], 1.38 µM; in assay [4] it was 3.4 µM; in assay [5], 3030 nM. In addition, the IC50 in assay [6] came out at 7.09 µM.

In the case of `Cc1[nH]c2c(c1C(=O)NCC(O)CN1CCN(C)CC1)CCC/C2=C1/C(=O)Nc2ccc(Cl)cc21` (stereo not drawn) [I-78, N-[2-hydroxy-3-(4-methylpiperazin-1-yl)propyl]-2-methyl-7-[1,2-dihydro-5-chloro-2-oxo-3H-indol-(Z)-3-ylidene]-4,5,6,7-tetrahydro-1H-indole-3-carboxamide], the inhibition at 10 µM in assay [7] turned out to be 29.9%; in assay [1] it was 31.7%; in assay [2], 48.5%; in assay [3] it was 24.2%; in assay [4], 21.8%; in assay [5] it was 20.2%. Further, the inhibition at 10 µM in assay [6] came out at 8.07%. In assay [2], this compound had a concentration for half-maximal inhibition (IC50) of 12.2 µM.

On to `Cc1ccc2c(c1)/C(=C1\CCCc3c1[nH]c(C)c3C(=O)NCC(O)CN(C)C1CCCCC1)C(=O)N2` (stereo not drawn) [I-79, N-[3-(cyclohexyl(methyl)amino)-2-hydroxypropyl]-2-methyl-7-[1,2-dihydro-5-methyl-2-oxo-3H-indol-(Z)-3-ylidene]-4,5,6,7-tetrahydro-1H-indole-3-carboxamide], for which the inhibition at 10 µM in assay [7] was found to be 63.3%; in assay [1] it was 99%; in assay [2] it was 81%; in assay [3], 98.2%; in assay [4], 96.8%; in assay [5] it was 96%. Besides, the IC50 in assay [7] turned out to be 2840 nM; in assay [1], 840 nM; in assay [2], 2.28 µM; in assay [3], 2.32 µM; in assay [4], 3.99 µM; in assay [5] it was 1510 nM. Besides, half-maximal inhibition in assay [6] (IC50) was put at 3.26 µM.
